Test results: patent publication US8986733B2, “Materials and methods for nerve repair” (University of Florida Research Foundation, Inc., priority 2001, dated 2015)

Key:
rat sciatic nerve = assay: Interpositional acellular nerve grafting, GAP-43 axon scoring; type: in vivo
Source text: Preparation of acellular nerve grafts treated with chondroitinase. Adult (180-200 g) female SPRAGUE DAWLEY rats (HARLAN, Indianapolis, Ind.) were used as nerve donors and recipient hosts. Donor rats were anesthetized with halothane and decapitated. Sciatic nerves were exposed through a gluteal muscle-splitting incision and isolated free of underlying fascia. A 15-mm nerve segment was excised rostral to the bifurcation into common peroneal and tibial nerves. The segments were rinsed with cold sterile Ringer's solution, stabilized by pinning the ends to a thin plastic support, and transferred to a cryogenic vial. The vials were submerged in liquid nitrogen for 2 minutes and then transferred to a 37° C. water bath for 2 minutes. This freeze/thaw cycle was repeated, yielding acellular nerve grafts that were then stored in liquid nitrogen. On the day before grafting, the nerve grafts were warmed to room temperature and incubated in 100 μl phosphate buffered saline pH 7.4 (PBS) containing 2 units/ml chondroitinase ABC (SIGMA, St. Louis, Mo.) or in PBS (vehicle) only for 16 hours at 37° C. The grafts were rinsed twice with Ringer's and kept on ice prior to use. The chondroitinase ABC preparation was highly purified and stated by the manufacturer to be essentially free of protease activity.
Interpositional nerve grafting for chondroitinase experiments. Twelve rats received bilateral acellular nerve grafts, one chondroitinase-treated and one vehicle-treated graft. Host rats were deeply anesthetized using xylazine (15 mg/kg, i.m.) and ketamine (110 mg/kg, i.p.). The sciatic nerve was exposed and supported by a plastic insert placed between the nerve and underlying tissue. The region of nerve halfway between the sciatic notch and bifurcation was first coated with fibrin glue. […]
The main grafts were sectioned serially on the transverse plane in recorded measure to assess the extent of axonal growth by microscopy. […] GAP-43-positive axon profiles were scored using IMAGE-PRO PLUS software (MEDIA CYBERNETICS, Silver Springs, Md.). […]

CSPG = assay: CSPG-neoepitope immunolabeling of injured sciatic nerve after in vivo injection; design: species or system rat; details: single injection 1 U in 2 μl, 2 mm distal to injury; 4 days (transection) or 2 days (crush)
Method: Surgical procedures for nerve transection and nerve crush experiments. All surgical procedures were performed according to Institutional Animal Care and Use Committee (IACUC) approved protocols. Young adult SPRAGUE DAWLEY rats (HARLAN Indianapolis, Ind.) were deeply anesthetized with xylazine (15 mg/kg, i.m.) followed by ketamine-HCl (110 mg/kg, i.p.). Six animals received bilateral nerve crush injuries. Sciatic nerves were exposed and then crushed with firm pressure for thirty seconds with a DUMONT #5 forceps at a site 4 mm distal to the tendon of the internal obdurator. The crush site was marked with an epineurial suture. In a separate set of experiments, eight rats received bilateral sciatic nerve transection injuries using serrated scissors. The proximal and distal stumps were […] by epineurial neurorrhaphy using 9-0 ETHILON sutures. Fibrin glue (fibrinogen and thrombin) was then applied to stabilize the union. In both injury models, the right sciatic nerves were injected 2-mm distal to the injury with chondroitinase ABC (1 U in 2 μl) (high-purity, protease-free; SIGMA CHEMICAL CO., St. Louis, Miss.). Left sciatic nerves (with the same injury as the right side) were injected with vehicle alone (0.1% bovine serum albumin in PBS). […]
Immunocytochemistry. Axonal regeneration was assessed by GAP-43 immunofluorescence and digital image analysis. […]

For chondroitinase ABC, the “latency of axonal regeneration into acellular nerve grafts” value (rat sciatic nerve; 4-day and 8-day grafts) was “decreases the latency”, the “axonal penetration vs control grafts” value (rat sciatic nerve; 4-day grafts, 0.3 mm from the host-graft interface) was “five-fold greater” and the “average number of axons (GAP-43-immunopositive profiles) entering grafts vs control grafts” value (rat sciatic nerve; 8-day grafts, en bloc treated acellular syngrafts) was “more than three-fold greater”. For the same substance, the “CSPG degradation in extracellular matrix around injection site” value (CSPG) was “substantially, if not completely, degraded CSPG”.
